Test results as given in paper PMC5225183, “Fingerprinting of neurotoxic compounds using a mouse embryonic stem cell dual luminescence reporter assay” (Archives of Toxicology, 2016).

How the values were obtained:
[1] = system: plasma protein; settings: cited from earlier work; for fb,pl (plasma bound fraction): extracted from the literature (geldanamycin value assumed)
[2] = extracted from the literature; cited from earlier work
[3] = system: ESC-derived neurons; settings: for In vitro EC20 in ESC-derived neurons: in vitro toxicity data expressed as EC20
Text: Fig. 1 Synopsis of experimental protocols. The impact of compounds on neural promoter activity (FLuc, Firefly Luciferase under the control of the Tα1 promoter), general promoter activity (RLuc, Renilla Luciferase under the control of the EF1α promoter), and amount of DNA (PI, propidium iodide fluorescence in cell homogenates) was investigated in undifferentiated mouse embryonic pluripotent stem cells (ESCs) and on ESC-derived neurons. Arrows indicate the time of measurement of the three parameters. a Protocol for testing compounds effects on ESCs. CGR8-2Luc cells were plated on gelatin-coated 96-well plates in maintenance medium (BHK21 medium containing 10 % FCS, L-glutamine, NEAA, P/S, and LIF). Twenty-four hours later, cells were exposed to compounds for forty-eight hours. b Protocol for testing compounds on ESC-derived neurons. CGR8-2Luc cells were co-cultured with MS5 cells to induce neural differentiation in DMEM medium containing 15 % KO-serum, NEAA, β-mercaptoethanol, and P/S. On day 5, cells were detached and seeded on polyornithine-coated plates in DMEM medium containing N2 supplement, bFGF, and P/S; compound exposure was from day 6 to day 8
To test compounds on ESC-derived neurons, neuronal differentiation was carried out as previously described (Suter et al. [2009]; Xu et al. [2014]). Briefly, CGR8-2Luc cells were seeded on irradiated bone marrow-derived stromal MS5 cells and cultivated for 4 days in DMEM medium containing 15 % Knock-out™ Serum Replacement, non-essential amino acids, beta-mercaptoethanol, and penicillin/streptomycin. At day 5, cells were then re-plated (3 × 10^5 cells/cm^2) on polyornithine-coated 96-well plates in N2 medium containing DMEM, N2 supplement, penicillin/streptomycin, and 10 ng/ml basic human fibroblast growth factor (bFGF) (Invitrogen). […] To assess toxicity of compounds on undifferentiated pluripotent stem cells (ESCs), CGR8-2Luc cells were plated at 45,000 cells/cm^2 on 0.1 % gelatin-coated dishes in BHK21 medium, supplemented with 10 % fetal calf serum, L-glutamine, non-essential amino acids, penicillin/streptomycin, and leukemia inhibitory factor (LIF). After 24 h, compounds were added and incubated for 48 h, before luciferase expression and PI fluorescence were analyzed. In all experiments, methylmercury was used as a positive control at a concentration of 5 µM.
Luciferase activities were measured with a Dual-Luciferase™ Reporter system kit. CGR8-2Luc ES cells were lysed in 96-well plates according to the manufacturer’s instructions. Luminescence measurements were performed on a Fluostar Optima reader. Luminescence counts were expressed as percentage of promoter activity normalized by comparison with the control wells treated by DMSO. […] parameters were measured in homogenates of ESCs and in ESC-derived neurons: (1) FLuc, reflecting the activity of early neural promoter Tα1. FLuc increases during neuronal differentiation. Many neurotoxic compounds may affect FLuc expression, either through impact on neuronal differentiation, through changes of neuronal gene expression, or through killing of neurons.
After measurement of luciferase activity, DNA quantity was determined by PI assay, as previously described (Xu et al. [2014]). […] After incubation, fluorescence intensity was measured on a Flexstation 3 microplate reader (Excitation: 544 nm ± 15 nm; Emission: 620 nm ± 15 nm). Results are expressed as percentage of control. […]

[4] = PBPK reverse modeling of nominal equivalent concentration (NEC), rat data
Description: The lipid content and albumin concentrations of the test media N2 and BHK medium were calculated on the basis of the available information provided by the suppliers (Fig. S2A). The data on rat plasma have been adopted from (Verwei et al. [2006]). The original references are (Barber et al. [1990]) for albumin and (DeJongh et al. [1997]) for lipids. Human plasma values were taken from (Gulden and Seibert [2003]). The original data on albumin are from (Lindup [1987]) and for lipids from (Patterson et al. [1988]). Total protein concentrations were calculated based on the assumption that the protein molar mass is similar to the one of albumin (66 kDa). Albumin was assumed to represent 60 and 48 % of the total serum proteins (mg/ml) in human and rat (Baker et al. [1979]; Busher [1990]) (Fig. S2A).
(a) Developmental toxicity (DT)—inducing concentrations were extrapolated from the in vivo study reported in the document by the Australian Therapeutic Goods Administration (Australian Therapeutic Goods Administration [2014]). […] (b) Toxicokinetic parameters of abiraterone in rats were extracted from the available report from the TGA (Australian Therapeutic Goods Administration [2014]). […] (c) The nominal in vitro concentrations equivalent to the concentration used in vivo were calculated using the value of total protein concentration instead of albumin concentration. […]
(c) The nominal in vitro concentrations equivalent to the concentration used in vivo in rats and humans (Cmax and Cavg) were determined assuming only binding to the specific drug-binding proteins (albumin and/or α1-acid glycoprotein) (Fig. S2D).

C[C@]12CC[C@H](O)CC1=CC[C@@H]1[C@@H]2CC[C@]2(C)C(c3cccnc3)=CC[C@@H]12 [Abiraterone]
fb,pl (plasma bound fraction) [1]: 0.998 | percentage of plasma protein binding ([1]; without relevant species differences, ref US FDA [2011]): 99.8% | Kow (octanol:water partition coefficient) [2]: 131826 | concentration affecting neural differentiation (decrease of neuronal and general promoter activities) ([3]; ESC-derived neurons, no change in cell number): higher than 0.5 µM | In vitro EC20 in ESC-derived neurons [3]: 700 nM | Free concentration in vivo ([4]; Cavg): 1.68e-05 nM | Total concentration in vivo (ECpl) ([4]; Cavg): 0.00401 µM | Free concentration in vivo ([4]; Cmax): 0.00013 nM | Total concentration in vivo (ECpl) ([4]; Cmax): 0.0309 µM

COC1=C2C[C@@H](C)C[C@H](OC)[C@H](O)[C@@H](C)/C=C(\C)[C@H](OC(N)=O)[C@@H](OC)/C=C\C=C(/C)C(=O)NC(=CC1=O)C2=O [Geldanamycin]
fb,pl (plasma bound fraction) [1]: 0.990 | Kow (octanol:water partition coefficient) [2]: 417 | In vitro EC20 in ESC-derived neurons [3]: 1 nM | Free concentration in vivo ([4]; Cmax): 8.91 nM | Total concentration in vivo (ECpl) ([4]; Cmax): 2.23 µM

[Br][Hg][Br] [Mercury bromide]
concentration up to which neurons were not affected [3]: 5000 nM

C/C(O)=C(\C#N)C(=O)Nc1ccc(C(F)(F)F)cc1 [Teriflunomide]
fb,pl (plasma bound fraction) [1]: 0.995 | average bound fraction in plasma ([1]; ref Russo et al. [2013]): 99.46% | Kow (octanol:water partition coefficient) [2]: 327 | In vitro EC20 in ESC-derived neurons [3]: 10000 to 20000 nM | Free concentration in vivo ([4]; Cavg): 11.7 nM | Total concentration in vivo (ECpl) ([4]; Cavg): 5.09 µM | Free concentration in vivo ([4]; Cmax): 25.6 nM | Total concentration in vivo (ECpl) ([4]; Cmax): 11.1 µM
